{"source": "ChEMBL document CHEMBL1140262", "about": "(J Med Chem, 2005)", "key": {"[1]": {"biological_target": "Synaptic vesicular amine transporter (Rattus norvegicus, UniProt Q01827)", "sequence (Q01827 whole entry)": "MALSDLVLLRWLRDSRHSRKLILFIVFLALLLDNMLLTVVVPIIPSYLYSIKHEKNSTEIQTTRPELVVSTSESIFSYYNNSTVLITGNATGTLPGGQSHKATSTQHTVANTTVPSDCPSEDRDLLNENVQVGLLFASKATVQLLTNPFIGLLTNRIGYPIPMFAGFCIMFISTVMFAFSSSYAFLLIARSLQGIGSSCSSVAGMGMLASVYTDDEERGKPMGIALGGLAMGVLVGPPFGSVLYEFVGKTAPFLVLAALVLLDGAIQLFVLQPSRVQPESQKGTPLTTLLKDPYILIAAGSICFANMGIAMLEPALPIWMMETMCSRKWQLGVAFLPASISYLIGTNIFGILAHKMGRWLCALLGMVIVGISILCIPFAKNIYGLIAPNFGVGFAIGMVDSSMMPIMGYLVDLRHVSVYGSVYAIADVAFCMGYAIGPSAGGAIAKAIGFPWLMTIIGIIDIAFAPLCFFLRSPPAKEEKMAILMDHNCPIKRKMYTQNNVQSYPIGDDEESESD", "format": "cell membranes, Membrane", "description": "Inhibition of 5 nM [3H]DTBZ binding to Vesicular Monoamine Transporter (VAMT2) of rat vesicle membranes"}, "[2]": {"biological_target": "Neuronal acetylcholine receptor subunit alpha-7 (Rattus norvegicus, UniProt Q05941)", "sequence (Q05941 whole entry)": "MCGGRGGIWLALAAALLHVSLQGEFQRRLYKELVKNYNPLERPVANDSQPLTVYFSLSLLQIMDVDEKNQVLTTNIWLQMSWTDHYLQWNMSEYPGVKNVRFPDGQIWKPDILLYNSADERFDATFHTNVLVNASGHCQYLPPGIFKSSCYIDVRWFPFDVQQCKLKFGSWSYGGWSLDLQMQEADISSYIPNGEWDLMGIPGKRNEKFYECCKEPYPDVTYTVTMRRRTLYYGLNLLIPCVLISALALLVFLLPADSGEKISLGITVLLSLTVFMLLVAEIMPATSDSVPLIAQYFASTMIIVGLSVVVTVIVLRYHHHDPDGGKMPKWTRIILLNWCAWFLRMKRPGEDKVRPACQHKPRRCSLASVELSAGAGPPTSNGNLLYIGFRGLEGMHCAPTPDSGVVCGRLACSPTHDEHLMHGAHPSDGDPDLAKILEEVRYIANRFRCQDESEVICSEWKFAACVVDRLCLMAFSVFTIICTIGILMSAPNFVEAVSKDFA", "format": "cell membranes, Membrane", "description": "Inhibition of 3 nM [3H]-MLA binding to Nicotinic acetylcholine receptor alpha7 of rat brain membranes"}, "[3]": {"biological_target": "Neuronal acetylcholine receptor; alpha4/beta2 (Rattus norvegicus, UniProt P09483+P12390)", "sequence (P09483 whole entry)": "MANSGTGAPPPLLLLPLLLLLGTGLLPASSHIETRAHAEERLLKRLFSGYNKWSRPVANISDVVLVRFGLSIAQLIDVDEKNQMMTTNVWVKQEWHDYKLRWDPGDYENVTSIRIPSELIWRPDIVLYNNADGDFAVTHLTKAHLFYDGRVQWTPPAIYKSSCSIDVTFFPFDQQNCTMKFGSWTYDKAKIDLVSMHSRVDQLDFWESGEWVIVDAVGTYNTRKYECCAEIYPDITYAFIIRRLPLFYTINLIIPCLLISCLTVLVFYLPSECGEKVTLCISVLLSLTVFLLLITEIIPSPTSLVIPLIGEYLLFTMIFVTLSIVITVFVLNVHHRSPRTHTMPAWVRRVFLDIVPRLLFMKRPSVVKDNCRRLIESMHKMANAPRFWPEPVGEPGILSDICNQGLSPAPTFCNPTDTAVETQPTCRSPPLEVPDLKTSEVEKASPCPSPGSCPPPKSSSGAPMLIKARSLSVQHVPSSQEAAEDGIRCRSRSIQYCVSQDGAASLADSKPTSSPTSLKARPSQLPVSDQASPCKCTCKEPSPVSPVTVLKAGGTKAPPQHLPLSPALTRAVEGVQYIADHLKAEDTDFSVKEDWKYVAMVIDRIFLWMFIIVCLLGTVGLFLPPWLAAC", "sequence (P12390 whole entry)": "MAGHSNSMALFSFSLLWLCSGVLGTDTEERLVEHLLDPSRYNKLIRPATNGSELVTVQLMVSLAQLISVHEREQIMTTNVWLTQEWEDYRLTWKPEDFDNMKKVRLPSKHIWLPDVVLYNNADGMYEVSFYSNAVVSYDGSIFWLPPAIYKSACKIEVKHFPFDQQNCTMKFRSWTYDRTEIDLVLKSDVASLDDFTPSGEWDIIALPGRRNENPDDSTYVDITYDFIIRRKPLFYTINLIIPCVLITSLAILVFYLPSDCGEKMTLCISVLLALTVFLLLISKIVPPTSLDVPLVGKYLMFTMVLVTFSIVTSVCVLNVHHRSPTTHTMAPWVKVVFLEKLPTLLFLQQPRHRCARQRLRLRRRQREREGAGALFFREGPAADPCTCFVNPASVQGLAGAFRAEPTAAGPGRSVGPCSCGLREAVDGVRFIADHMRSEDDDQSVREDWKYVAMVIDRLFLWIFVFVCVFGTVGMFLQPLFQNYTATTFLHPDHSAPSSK", "test": "Inhibition of 3 nM [3H]NIC binding to Nicotinic acetylcholine receptor alpha4-beta2 of rat striatal membranes", "format": "cell membranes, Membrane"}, "Rattus norvegicus [4]": {"species": "Rattus norvegicus", "test": "Ratio of Ki for Nicotinic acetylcholine receptor alpha-7 and Vesicular monoamine transporter ([…])"}, "Rattus norvegicus [5]": {"species": "Rattus norvegicus", "test": "Ratio of Ki for Nicotinic acetylcholine receptor alpha4-beta2 and Vesicular Monoamine Transporter ([…])"}}, "note": "pKi: −log10 of the molar value.", "data": [{"smiles": "CN1[C@H](/C=C/c2ccccc2)CCC[C@H]1/C=C/c1ccccc1", "values": [{"measurement": "pKi", "setting": "[1]", "result": 4.71}, {"measurement": "pKi", "setting": "[2]", "result": "< 4.00"}, {"measurement": "pKi", "setting": "[3]", "result": "< 4.00"}, {"measurement": "Ki ratio", "setting": "Rattus norvegicus [4]", "result": "> 5.2"}, {"measurement": "Ki ratio", "setting": "Rattus norvegicus [5]", "result": "> 5.2"}]}, {"smiles": "c1ccc2c(CC[C@H]3CCC[C@@H](CCc4cccc5ccccc45)N3)cccc2c1", "values": [{"measurement": "pKi", "setting": "[1]", "result": 5.33}, {"measurement": "pKi", "setting": "[2]", "result": "< 4.00"}, {"measurement": "pKi", "setting": "[3]", "result": "< 4.00"}, {"measurement": "Ki ratio", "setting": "Rattus norvegicus [4]", "result": "> 21.4"}, {"measurement": "Ki ratio", "setting": "Rattus norvegicus [5]", "result": "> 21.4"}]}, {"smiles": "CN[C@@H](CCCCCCc1ccccc1)CCc1ccccc1", "values": [{"measurement": "pKi", "setting": "[1]", "result": 5.28}, {"measurement": "pKi", "setting": "[2]", "result": "< 4.00"}, {"measurement": "pKi", "setting": "[3]", "result": "< 4.00"}, {"measurement": "Ki ratio", "setting": "Rattus norvegicus [4]", "result": "> 19.2"}, {"measurement": "Ki ratio", "setting": "Rattus norvegicus [5]", "result": "> 19.2"}]}, {"smiles": "C[N+]1(C)[C@H](/C=C/c2ccccc2)CCC[C@@H]1/C=C/c1ccccc1", "values": [{"measurement": "pKi", "setting": "[1]", "result": "< 4.00"}, {"measurement": "pKi", "setting": "[2]", "result": 4.47}, {"measurement": "pKi", "setting": "[3]", "result": "< 4.00"}, {"measurement": "Ki ratio", "setting": "Rattus norvegicus [4]", "result": "< 0.3"}]}, {"smiles": "c1ccc2cc(CC[C@H]3CCC[C@@H](CCc4ccc5ccccc5c4)N3)ccc2c1", "values": [{"measurement": "pKi", "setting": "[1]", "result": "< 4.00"}, {"measurement": "pKi", "setting": "[2]", "result": "< 4.00"}, {"measurement": "pKi", "setting": "[3]", "result": "< 4.00"}]}, {"smiles": "C[N+]1(C)[C@H](CCc2ccccc2)CCC[C@H]1CCc1ccccc1", "values": [{"measurement": "pKi", "setting": "[1]", "result": 4.61}, {"measurement": "pKi", "setting": "[2]", "result": 5.62}, {"measurement": "pKi", "setting": "[3]", "result": 4.79}, {"measurement": "Ki ratio", "setting": "Rattus norvegicus [4]", "result": 0.1}, {"measurement": "Ki ratio", "setting": "Rattus norvegicus [5]", "result": 0.7}]}, {"smiles": "C(=C\\[C@@H]1CCC[C@H](/C=C/c2ccccc2)N1)/c1ccccc1", "values": [{"measurement": "pKi", "setting": "[2]", "result": "< 4.00"}, {"measurement": "pKi", "setting": "[3]", "result": "< 4.00"}, {"measurement": "Ki ratio", "setting": "Rattus norvegicus [4]", "result": "> 48.1"}, {"measurement": "Ki ratio", "setting": "Rattus norvegicus [5]", "result": "> 48.1"}]}, {"smiles": "CN1[C@@H](CCc2ccccc2)CCC[C@@H]1/C=C/c1ccccc1", "values": [{"measurement": "pKi", "setting": "[3]", "result": "< 4.00"}]}, {"smiles": "CN1[C@H](CCc2ccccc2)CCC[C@H]1/C=C/c1ccccc1", "values": [{"measurement": "pKi", "setting": "[3]", "result": "< 4.00"}]}, {"smiles": "CN1[C@@H](CCc2ccccc2)CCC[C@H]1CCc1ccccc1", "note": "[LOBELANE]", "values": [{"measurement": "pKi", "setting": "[2]", "result": 4.59}]}, {"smiles": "C(=C\\[C@@H]1CCC[C@@H](/C=C/c2ccccc2)N1)/c1ccccc1.C(=C\\[C@H]1CCC[C@H](/C=C/c2ccccc2)N1)/c1ccccc1", "values": [{"measurement": "pKi", "setting": "[1]", "result": 5.28}, {"measurement": "pKi", "setting": "[2]", "result": "< 4.00"}, {"measurement": "pKi", "setting": "[3]", "result": "< 4.00"}, {"measurement": "Ki ratio", "setting": "Rattus norvegicus [4]", "result": "> 19.3"}, {"measurement": "Ki ratio", "setting": "Rattus norvegicus [5]", "result": "> 19.3"}]}, {"smiles": "CN[C@H](CCCCCCc1ccccc1)CCc1ccccc1", "values": [{"measurement": "pKi", "setting": "[1]", "result": 5.40}, {"measurement": "pKi", "setting": "[2]", "result": "< 4.00"}, {"measurement": "pKi", "setting": "[3]", "result": "< 4.00"}, {"measurement": "Ki ratio", "setting": "Rattus norvegicus [4]", "result": "> 25.2"}, {"measurement": "Ki ratio", "setting": "Rattus norvegicus [5]", "result": "> 25.2"}]}, {"smiles": "C[N+]1(C)[C@H](/C=C/c2ccccc2)CCC[C@H]1/C=C/c1ccccc1", "values": [{"measurement": "pKi", "setting": "[1]", "result": 5.03}, {"measurement": "pKi", "setting": "[2]", "result": 4.82}, {"measurement": "pKi", "setting": "[3]", "result": "< 4.00"}, {"measurement": "Ki ratio", "setting": "Rattus norvegicus [4]", "result": 1.6}, {"measurement": "Ki ratio", "setting": "Rattus norvegicus [5]", "result": "> 10.8"}]}, {"smiles": "CN1[C@H](CCc2ccccc2)CCC[C@@H]1/C=C/c1ccccc1", "values": [{"measurement": "pKi", "setting": "[3]", "result": "< 4.00"}]}, {"smiles": "CN(CCCc1ccccc1)CCCc1ccccc1", "values": [{"measurement": "pKi", "setting": "[1]", "result": 5.51}, {"measurement": "pKi", "setting": "[2]", "result": "< 4.00"}, {"measurement": "pKi", "setting": "[3]", "result": "< 4.00"}, {"measurement": "Ki ratio", "setting": "Rattus norvegicus [4]", "result": "> 32.3"}, {"measurement": "Ki ratio", "setting": "Rattus norvegicus [5]", "result": "> 32.3"}]}, {"smiles": "CN1[C@@H](CCc2ccccc2)CCC[C@@H]1CCc1ccccc1", "values": [{"measurement": "pKi", "setting": "[2]", "result": 4.40}]}, {"smiles": "CN1[C@@H](CCc2ccc3ccccc3c2)CCC[C@H]1CCc1ccc2ccccc2c1", "values": [{"measurement": "pKi", "setting": "[1]", "result": 5.69}, {"measurement": "pKi", "setting": "[2]", "result": "< 4.00"}, {"measurement": "pKi", "setting": "[3]", "result": "< 4.00"}, {"measurement": "Ki ratio", "setting": "Rattus norvegicus [4]", "result": "> 49.3"}, {"measurement": "Ki ratio", "setting": "Rattus norvegicus [5]", "result": "> 49.3"}]}, {"smiles": "CN1[C@@H](CCc2cccc3ccccc23)CCC[C@H]1CCc1cccc2ccccc12", "values": [{"measurement": "pKi", "setting": "[1]", "result": 6.20}, {"measurement": "pKi", "setting": "[2]", "result": "< 4.00"}, {"measurement": "pKi", "setting": "[3]", "result": "< 4.00"}, {"measurement": "Ki ratio", "setting": "Rattus norvegicus [4]", "result": "> 159"}, {"measurement": "Ki ratio", "setting": "Rattus norvegicus [5]", "result": "> 159"}]}, {"smiles": "CN1[C@@H](CCc2ccccc2)CCC[C@H]1/C=C/c1ccccc1", "values": [{"measurement": "pKi", "setting": "[3]", "result": "< 4.00"}]}, {"smiles": "CN1[C@H](/C=C/c2ccccc2)CCC[C@@H]1/C=C/c1ccccc1", "values": [{"measurement": "pKi", "setting": "[1]", "result": 5.01}, {"measurement": "pKi", "setting": "[2]", "result": "< 4.00"}, {"measurement": "pKi", "setting": "[3]", "result": 4.94}, {"measurement": "Ki ratio", "setting": "Rattus norvegicus [4]", "result": "> 10.1"}, {"measurement": "Ki ratio", "setting": "Rattus norvegicus [5]", "result": 1.2}]}, {"smiles": "c1ccc(CC[C@H]2CCC[C@@H](CCc3ccccc3)N2)cc1", "values": [{"measurement": "pKi", "setting": "[1]", "result": 5.64}, {"measurement": "pKi", "setting": "[2]", "result": "< 4.00"}, {"measurement": "pKi", "setting": "[3]", "result": "< 4.00"}, {"measurement": "Ki ratio", "setting": "Rattus norvegicus [4]", "result": "> 43.3"}, {"measurement": "Ki ratio", "setting": "Rattus norvegicus [5]", "result": "> 43.3"}]}, {"smiles": "CN1[C@@H](/C=C/c2ccccc2)CCC[C@@H]1/C=C/c1ccccc1", "values": [{"measurement": "pKi", "setting": "[1]", "result": 5.15}, {"measurement": "pKi", "setting": "[2]", "result": "< 4.00"}, {"measurement": "pKi", "setting": "[3]", "result": "< 4.00"}, {"measurement": "Ki ratio", "setting": "Rattus norvegicus [4]", "result": "> 14.1"}, {"measurement": "Ki ratio", "setting": "Rattus norvegicus [5]", "result": "> 14.1"}]}, {"smiles": "C[N+]1(C)[C@@H](CCc2ccccc2)CCC[C@H]1CCc1ccccc1", "values": [{"measurement": "pKi", "setting": "[1]", "result": 4.78}, {"measurement": "pKi", "setting": "[2]", "result": 5.02}, {"measurement": "pKi", "setting": "[3]", "result": 4.61}, {"measurement": "Ki ratio", "setting": "Rattus norvegicus [4]", "result": 0.6}, {"measurement": "Ki ratio", "setting": "Rattus norvegicus [5]", "result": 1.5}]}, {"smiles": "CN(C/C=C/c1ccccc1)C/C=C/c1ccccc1", "values": [{"measurement": "pKi", "setting": "[1]", "result": 5.63}, {"measurement": "pKi", "setting": "[2]", "result": "< 4.00"}, {"measurement": "pKi", "setting": "[3]", "result": "< 4.00"}, {"measurement": "Ki ratio", "setting": "Rattus norvegicus [4]", "result": "> 42.2"}, {"measurement": "Ki ratio", "setting": "Rattus norvegicus [5]", "result": "> 42.2"}]}, {"smiles": "CN1[C@H](CCc2ccccc2)CC=C[C@@H]1CCc1ccccc1", "values": [{"measurement": "pKi", "setting": "[3]", "result": "< 4.00"}]}, {"smiles": "CN1[C@@H](CCc2ccccc2)C=CC[C@H]1/C=C/c1ccccc1", "values": [{"measurement": "pKi", "setting": "[1]", "result": 5.42}, {"measurement": "pKi", "setting": "[2]", "result": "< 4.00"}, {"measurement": "pKi", "setting": "[3]", "result": "< 4.00"}, {"measurement": "Ki ratio", "setting": "Rattus norvegicus [4]", "result": "> 26"}, {"measurement": "Ki ratio", "setting": "Rattus norvegicus [5]", "result": "> 26"}]}, {"smiles": "CN1[C@H](CCc2ccccc2)CCC[C@H]1CCc1ccccc1", "values": [{"measurement": "pKi", "setting": "[2]", "result": 4.60}]}]}
